Key:
CDK1/CycB = target: T1, CDK1/CycB (Homo sapiens, UniProt P06493); test: In vitro kinase inhibition assay, CDK1/CycB; type: biochemical
T1 construct: made in house; host or cells: Sf9 insect cells, baculovirus

SNI mice = test: Spared nerve injury (SNI) model of chronic neuropathic pain, von Frey assay; type: in vivo
Text: As outlined above, the spared nerve injury (SNI) model (see FIG. 1) involves a lesion of two of the three terminal branches of the sciatic nerve (tibial and common peroneal nerves) of experimental animals, leaving the sural nerve intact. SNI results in mechanical and thermal allodynia in the non-injured sural nerve skin territory (Decosterd & Woolf, Pain 2000; 87:149-158; Tsujino et al., Mol. Cel. Neurosci. 2000; 15:170-182).
Wildtype mice (strain C3HeB/FeJ) (age, sex and weight matched) were anesthetized with Hypnorm (0.315 mg/ml fentanyl citrate+10 mg/ml fluanisone; Janssen)/Hypnovel (5 mg/ml midazolam; Roche Applied Sciences)/water at a ratio of 1:1:2 at 4 μl/g prior to surgical preparation.
Subsequently, an incision was made under aseptic precautions in the ipsi-lateral right hind leg of all mice just above the level of the knee, exposing the three terminal branches of the sciatic nerve: the common peroneal, tibial, and sural nerves. The common peroneal and tibial nerves were ligated tightly with 7/0 silk and sectioned distal to the ligation removing ≈2 mm of distal nerve stump. The sural branch remained untouched during the procedure (denoted herein “SNI ipsi”). The overlying muscle and skin was sutured, and the animals were allowed to recover and to permit wound healing. In the same mice, the sciatic nerve branches of the contra-lateral left hind leg were exposed but not lesioned (denoted herein “SNI contra-lateral”). Mice that underwent spared nerve injury are hereinafter denoted “SNI mice”.
After recovery from surgery and wound healing, SNI mice received intraperitoneal (i.p.) injections of CDK-inhibiting compounds. In particular, compound A and B as disclosed herein, belonging to the class of 4,6-disubstituted aminopyrimidine derivatives as described in WO2005/026129 were administered. […]
Injection of inhibitor or vehicle, and subsequent measurements of paw withdrawal threshold upon mechanical stimulation in von Frey assays were performed at day 0, day 7, day 21 and day 28 post SNI. Reflex nociceptive responses to mechanical stimulation were measured in a von Frey assay 30 min after each injection. An additional von Frey measurement was performed at day 14, but without prior injection of compound or vehicle.
Mice which underwent SNI and subsequent administration of the CDK-inhibiting compounds of the present invention were tested for signs of mechanical allodynia post nerve injury and post administration in a von Frey assay (Decosterd and Woolf, Pain 2000; 87:149-158). This assay determines the mechanical threshold upon which a stimulus, which normally is not painful, is recognized by an animal as uncomfortable or painful. SNI ipsi and SNI contra baselines, respectively, were established.
Mechanical thresholds of SNI mice were quantified using the up-down method based on Chaplan et al. (1994) and Malmberg and Basbaum (1998):
Mice were placed in plexiglass cylinders of about 9.5 cm in diameter, 14 cm high with four vent holes towards the top and a Plexiglas lid. The cylinders were placed on an elevated mesh surface (7×7 mm squares). Prior to the day of testing, the mice were adapted to the testing cylinders for 1-2 hours. On the day of testing the mice were adapted to the cylinders for about an hour, wherein the adaptation time depends on factors such as the strain of the mouse and the number of times they have been tested previously. In general, testing may begin once the mice are calm and stop exploring the new environment.
For testing mice, filaments 2.44, 2.83, 3.22, 3.61, 3.84, 4.08, and 4.31 (force range=0.04 to 2.0 g) were used. The […] filament was applied first. Said filament was gently applied to the plantar surface of one paw, allowed to bend, and held in position for 2-4 seconds. Whenever a positive response to the stimulus (flexion reaction) occurred, the next weaker von Frey filament was applied; whenever a negative response (no reaction) occurred, the next stronger force was applied. […]

T1 sequence (P06493 whole entry): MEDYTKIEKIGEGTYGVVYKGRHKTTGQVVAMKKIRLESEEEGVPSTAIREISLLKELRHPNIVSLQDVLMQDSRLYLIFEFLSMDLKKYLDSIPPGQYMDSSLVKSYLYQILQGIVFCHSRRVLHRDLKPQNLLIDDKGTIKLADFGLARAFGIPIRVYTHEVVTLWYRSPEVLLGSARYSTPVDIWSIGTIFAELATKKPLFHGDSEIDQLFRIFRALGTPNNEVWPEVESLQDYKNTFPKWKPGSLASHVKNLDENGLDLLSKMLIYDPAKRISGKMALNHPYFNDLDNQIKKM
T1 sequence (P14635 whole entry partner): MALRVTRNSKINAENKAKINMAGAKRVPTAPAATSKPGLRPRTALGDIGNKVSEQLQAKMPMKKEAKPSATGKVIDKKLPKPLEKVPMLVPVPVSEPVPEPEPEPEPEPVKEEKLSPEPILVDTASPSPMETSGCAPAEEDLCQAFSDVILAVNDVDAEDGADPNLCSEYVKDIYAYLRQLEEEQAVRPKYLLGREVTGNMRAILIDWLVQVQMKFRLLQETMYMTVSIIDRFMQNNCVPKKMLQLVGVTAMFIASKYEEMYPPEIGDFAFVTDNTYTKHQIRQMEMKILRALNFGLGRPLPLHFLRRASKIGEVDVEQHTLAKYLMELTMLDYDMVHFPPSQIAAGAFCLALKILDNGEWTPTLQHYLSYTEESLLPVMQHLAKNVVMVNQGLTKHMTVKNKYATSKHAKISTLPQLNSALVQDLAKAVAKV

IC50 (CDK1/CycB): 15.8 µM
SMILES: COc1ccccc1-c1cc(Nc2cccc(S(N)(=O)=O)c2)ncn1 [Compound A]
effect on von Frey mechanical threshold (SNI mice; 30 mg/kg at midnight and 8.00 a.m., measured 8.30 a.m., day 28 post SNI): significant increases in thresholds
effect on SNI-induced allodynia (von Frey) (SNI mice; 30 mg/kg i.p. 30 minutes before von Frey testing): hypoalgesic effect
effect on von Frey mechanical threshold (SNI mice; 30 mg/kg i.p. 30 minutes prior to measurements, day 21 post SNI): significant increase of threshold values
effect on von Frey mechanical threshold (SNI mice; 30 mg/kg i.p., day 7 post SNI): does not show any effect
average von Frey threshold value, contra-lateral paw (SNI mice; 30 mg/kg i.p., day 21 and 28): ~0.4 g
average von Frey threshold value, ipsi-lateral paw (SNI mice; 30 mg/kg i.p., day 21 and 28): ~0.3 g
